The record followed here is patent US10913712B2, “Tetracycline compounds” (Tetraphase Pharmaceuticals, Inc., priority 2012, dated 2021).

In brackets after ≈: the same amount, converted by molar mass. Where two headings read alike, the source gives them in different places.

One data set concerns PA 884 35151. Description: MIC assay. Type of data set: cell-based. Conditions: read-out: MIC PA 884 35151.
Data set [1] relates to Klebsiella pneumoniae KP153 (tet(A), MDR, ESBL+).
Data set [2] concerns Klebsiella pneumoniae KP457 (2009 ESBL+, CTX-M, OXA).
Data set [3] has as its system Klebsiella pneumoniae KP109 (ATCC 13883). Description: MIC assay. Type of data set: cell-based.
Data set [4] relates to Staphylococcus aureus SA161 (HA-MRSA, tet(M)). Description: MIC assay. In kind it is cell-based.
The test system of the next data set is PA 689. The data set can be described thus: MIC assay. In kind it is cell-based. The note with it: read-out: MIC PA 689.
In data set [5] the test system is Klebsiella pneumoniae KP153 (tet(A), MDR, ESBL+). The data set can be described thus: microbe, parasite or virus in culture. The note with it: read-out: MIC KP153 tetA.
Data set [6] deals with Streptococcus pneumoniae SP160 (tet(M)). Description: MIC assay. In kind it is cell-based.
The subject of data set [7] is Enterococcus faecium EF404 (blood isolate, tet(M)). Description: MIC assay. Type of data set: cell-based. The note with it: read-out: MIC EF 404 tetM, control compounds.
The subject of data set [8] is Escherichia coli EC107 (ATCC 25922). Description: MIC assay. The note with it: ATCC25922, read-out: MIC EC 107 25922, control compounds. In kind it is cell-based.

`CN(C)c1ccc(O)c2c1C[C@H]1C[C@H]3[C@H](N(C)C)C(O)=C(C(N)=O)C(=O)[C@@]3(O)C(O)=C1C2=O` [Minocycline, minocycline]: the MIC in the data set with PA 884 35151 (Table 6, control compounds) turned out to be 1 µg/mL (≈ 2.19 µM); in data set [3] (ATCC13883, Table 4, control compounds, read-out: MIC KP109 13883), 1 µg/mL (≈ 2.19 µM); in the data set with PA 689 (Table 6, control compounds), 8 µg/mL (≈ 17.5 µM); in data set [5] it was 8 µg/mL (≈ 17.5 µM). For the same molecule, the “MIC KP 153 tetA” value in data set [1] was determined as 8 µg/mL (≈ 17.5 µM). In addition, the “MIC KP 457 CTX-M-15” value in [2] amounted to 8 µg/mL (≈ 17.5 µM). Moreover, the “MIC SA 161 tetM” value in data set [4] (control compounds) is 8 µg/mL (≈ 17.5 µM).

For `CN(C)[C@@H]1C(O)=C(C(N)=O)C(=O)[C@@]2(O)C(O)=C3C(=O)c4c(O)cccc4C[C@H]3C[C@@H]12` [Sancycline, sancycline], the MIC with PA 884 35151 came out at 4 µg/mL (≈ 9.65 µM); with PA 689, 16 µg/mL (≈ 38.6 µM); in data set [5], 32 µg/mL (≈ 77.2 µM). Besides, in [1] (Table 5, control compounds), the “MIC KP 153 tetA” value is 32 µg/mL (≈ 77.2 µM). Further, in [2], the “MIC KP 457 CTX-M-15” value amounted to 8 µg/mL (≈ 19.3 µM).

With `CN(C)c1cc(NC(=O)CNC(C)(C)C)c(O)c2c1C[C@H]1C[C@H]3[C@H](N(C)C)C(O)=C(C(N)=O)C(=O)[C@@]3(O)C(O)=C1C2=O` [Tigecycline, tigecycline], the MIC in the data set with PA 884 35151 worked out at 0.063 µg/mL (≈ 0.108 µM); in [6] (read-out: MIC SP 160 tetM, Table 5, control compounds) it was 0.2 µg/mL (≈ 0.341 µM); in data set [6] (read-out: MIC SP 160 tetM, control compounds), 0.03 µg/mL (≈ 0.0512 µM); in [3] (ATCC13883, read-out: MIC KP109 13883) it was 0.125 µg/mL (≈ 0.213 µM); in data set [7], 0.06 µg/mL (≈ 0.102 µM); in [4] (Staphylococcus aureus, MRSA, read-out: MIC SA 161 tetM, control compounds) it was 0.1 µg/mL (≈ 0.171 µM). For the same molecule, the MIC in the data set with PA 689 is 1 µg/mL (≈ 1.71 µM); in data set [8] it was 0.02 µg/mL (≈ 0.0341 µM). The “MIC KP 153 tetA” value in [1] (Table 5, control compounds) came out at 1 µg/mL (≈ 1.71 µM). In addition, the “MIC KP 457 CTX-M-15” value was determined as 1 µg/mL (≈ 1.71 µM) in data set [2] (Table 6, control compounds) and 1 µg/mL (≈ 1.71 µM) in data set [2] (Table 7, control compounds).
